Columns and labels:
ApoB = test: ELISA of secreted ApoB in HepG2 cells; type: cell-based, human; conditions: HepG2 cells
Description: (§1) Additional secondary assays were performed in HepG2 cells to further characterize the cellular response to treatment with select confirmed TRIB1 inducer hits. The results of the ELISA, CTG, and qPCR secondary assays are summarized in Table B. For all secondary assays, the experiments were performed using powders of freshly purified compounds.
(§2) To further characterize the relationship of TRIB1 induction and PCSK9 reduction, ELISAs were performed to measure the levels of secreted ApoB, PCSK9, and LDLR. […] As predicted treatment with TRIB1 inducer hits caused a decrease in ApoB levels detected by ELISA. In parallel effort, 3200 BIOA and NATP compounds were screened for PCSK9 expression inhibitors. Hits were defined as inducing greater than 3-fold downregulation of PCSK9, and 3.8% of the screened compounds were confirmed as hits. […] In further experiments, a strong correlation was confirmed between TRIB1 induction and PCSK9 repression in DOS Collection hits. ELISA analysis confirmed that treatment with TRIB1 inducers reduced the PCSK9 protein levels. LDLR protein levels were also analyzed by ELISA to determine whether compounds that modulate both TRIB1 and PCSK9 had any effect on LDLR protein levels.

LDLR [1] = test: ELISA of LDLR protein in HepG2 cells; type: cell-based, human; conditions: HepG2 cells
Description: as §1, §2

PCSK9 [2] = test: ELISA of secreted PCSK9 protein in HepG2 cells; type: cell-based, human; conditions: HepG2 cells
Description: as §1, §2

HepG2 cells = test: Cell Titer Glo (CTG) cell viability assay; type: cell-based, human; parameters: key: A: Increase <2-fold; B: Increase >2-fold; X: Decrease <2-fold; Y: Decrease >2-fold; No significant change; conditions: cell viability (ATP)
Description: Cell viability was determined using a Cell Titer Glo (CTG) assay ([…]) after treatment with TRIB1 inducer compounds. In this assay, the number of viable cells in culture is based on quantitation of ATP, which indicates metabolically active cells. Addition of the reagent results in cell lysis and generation of a luminescent signal proportional to the amount of ATP present, which is directly proportional to the number of viable, metabolically active cells present in culture. Most TRIB1 inducer compounds had no significant effect on cell viability.

TRIB1 = test: qPCR TRIB1 expression in HepG2 cells; type: cell-based, human; parameters: key to qPCR TRIB1: A: Increase <2-fold; B: Increase >2-fold; X: Decrease <2-fold; Y: Decrease >2-fold; No significant change; conditions: for fold induction at 10 µM: Homo sapiens, 20 h
Description: (§3) In the primary screen, HepG2 cells were plated in 384-well plates at 2000 cells per well and incubated for 20 hours with each compound in duplicate at 10 microM concentration. Then RNA was isolated, reverse-transcribed to cDNA, and stored at −80° C. Expression levels of TRIB1 and other target genes, such as SORT1 and PCSK9, were determined by quantitative PCR. Relative gene expression level was normalized to expression of the housekeeping gene, GAPDH. A “hit” was defined as those compounds that caused a greater than 2-fold increase in relative target gene expression when normalized to GAPDH expression, compared to DMSO-treated control. Using these criteria, 130 hits were identified for TRIB1 (0.8% hit rate).
(§4) Further analysis of the expression levels of various proteins in the cholesterol and triglyceride biosynthetic pathways in response to TRIB1 inducer treatment was performed. In particular, transcript levels of additional lipoprotein metabolism pathway proteins SCAP, SREBF1, SREBF2, HMGCR, HMGCS, SCD1, FASN and MTTP were assessed by qPCR, along with TRIB1, LDLR, and PCSK9. The gene expression profile for the same subset of genes was also assessed after treatment with the statin atorvastatin (Lipitor), commonly used in therapy for hypercholesterolemia and other cardiovascular diseases.
(§5) The kinetics of the modulation of TRIB1, LDLR, PCSK9 and MTTP gene expression after treatment by select TRIB1 inducer compounds was monitored by qPCR analysis (FIG. 4). RNA was extracted from cells at various timepoints over 28 hours of treatment (0, 2, 4, 6, 8, 24, 28 hours). Specifically, compounds 12a and 14a induced transcriptional responses over time similar to those produced by berberine, a plant alkaloid used in Chinese medicine. […] Both compound 12a and compound 14a induce TRIB1 and LDLR and repress PCSK9 and MTTP expression with similar kinetics and similar fold change as berberine Importantly, both compounds induce these gene expression changes at much lower concentrations than berberine. […] This increased potency indicates the potential therapeutic efficacy of such compounds for treatment of cardiovascular diseases, particularly hypercholesterolemia and related conditions.

SCAP = test: qPCR SCAP transcript level in HepG2 cells; type: cell-based, human; parameters: key: A: Increase <2-fold; B: Increase >2-fold; X: Decrease <2-fold; Y: Decrease >2-fold; No significant change
Description: as §3, §4

SREBF1 = test: qPCR SREBF1 transcript level in HepG2 cells; type: cell-based, human; parameters: key: A: Increase <2-fold; B: Increase >2-fold; X: Decrease <2-fold; Y: Decrease >2-fold; No significant change
Description: as §3, §4

SREBF2 = test: qPCR SREBF2 transcript level in HepG2 cells; type: cell-based, human; parameters: key: A: Increase <2-fold; B: Increase >2-fold; X: Decrease <2-fold; Y: Decrease >2-fold; No significant change
Description: as §3, §4

PCSK9 [3] = test: qPCR PCSK9 expression in HepG2 cells; type: cell-based, human; conditions: for fold induction at 10 µM: Homo sapiens, 20 h, HepG2 cells
Description: as §3, §4, §5

LDLR [4] = test: qPCR LDLR expression in HepG2 cells; type: cell-based, human; conditions: for qPCR LDLR: HepG2 cells
Description: as §3, §4, §5

HMGCR = test: qPCR HMGCR transcript level in HepG2 cells; type: cell-based, human; parameters: key: A: Increase <2-fold; B: Increase >2-fold; X: Decrease <2-fold; Y: Decrease >2-fold; No significant change
Description: as §3, §4

HMGCS = test: qPCR HMGCS transcript level in HepG2 cells; type: cell-based; conditions: Homo sapiens, 20 h
Description: as §3, §4

FASN = test: qPCR FASN transcript level in HepG2 cells; type: cell-based; conditions: Homo sapiens, 20 h
Description: as §3, §4

SCD1 = test: qPCR SCD1 transcript level in HepG2 cells; type: cell-based; conditions: Homo sapiens, 20 h
Description: as §3, §4

Row | Structure (SMILES) | ELISA ApoB (ApoB) | ELISA LDLR (LDLR [1]) | ELISA PCSK9 (PCSK9 [2]) | CTG (HepG2 cells) | fold induction at 10 µM (TRIB1; HepG2 cells) | qPCR SCAP (SCAP) | qPCR SREBF1 (SREBF1) | qPCR SREBF2 (SREBF2) | fold induction at 10 µM (PCSK9 [3]) | qPCR LDLR (LDLR [4]) | qPCR HMGCR (HMGCR) | fold induction at 10 µM (HMGCS) | fold induction at 10 µM (FASN) | fold induction at 10 µM (SCD1) | TRIB1 expression (in words) (TRIB1; HepG2, qPCR) | qPCR TRIB1 (TRIB1; HepG2 cells) | increase of PCSK9 mRNA levels (PCSK9 [3]; time course, HepG2) | increase of LDLR mRNA levels (LDLR [4]; time course, HepG2)
1 | O=C(C[C@H]1C[C@H]2c3cc(NC(=O)c4ccc5c(c4)OCO5)ccc3O[C@H]2[C@H](CO)O1)NCc1ccc(Oc2ccccc2)cc1 [Compound 11a] | Y (Decrease >2-fold) | B (Increase >2-fold) | Y (Decrease >2-fold) | Y (Decrease >2-fold) | > 2 | N | Y (Decrease >2-fold) | Y (Decrease >2-fold) | > 2 | B (Increase >2-fold) | Y (Decrease >2-fold) | > 2 | > 2 | > 2 | – | – | – | –
2 | CN1C(=O)c2cc(NC(=O)Cc3cccs3)ccc2OC[C@@H]2O[C@H](CC(=O)NCc3ccc(-c4ccccc4)cc3)CC[C@@H]21 [Compound 4a] | Y (Decrease >2-fold) | A (Increase <2-fold) | X (Decrease <2-fold) | N | > 2 | X (Decrease <2-fold) | X (Decrease <2-fold) | X (Decrease <2-fold) | > 2 | A (Increase <2-fold) | X (Decrease <2-fold) | > 2 | > 2 | < 2 | – | – | – | –
3 | CC(C)c1c(C(=O)Nc2ccccc2)c(-c2ccccc2)c(-c2ccc(F)cc2)n1CC[C@@H](O)C[C@@H](O)CC(=O)O [Atorvastatin, atorvastatin, reference compound] | X (Decrease <2-fold) | A (Increase <2-fold) | A (Increase <2-fold) | N | – | N | N | A (Increase <2-fold) | > 2 | B (Increase >2-fold) | N | < 2 | < 2 | < 2 | did not significantly affect | N | ~2 fold | ~2 fold
4 | O=C(C[C@@H]1CC[C@@H]2[C@H](COC[C@@H](O)CN2CCC(F)(F)F)O1)NCc1ccc(Oc2ccccc2)cc1 [Compound 8a] | Y (Decrease >2-fold) | B (Increase >2-fold) | X (Decrease <2-fold) | N | > 2 | N | N | N | > 2 | B (Increase >2-fold) | Y (Decrease >2-fold) | > 2 | < 2 | < 2 | – | – | – | –
5 | O=C(C[C@@H]1CC[C@H]2[C@@H](COC[C@H](O)CN2Cc2ccc(Oc3ccccc3)cc2)O1)N1CCc2ccccc2C1 [Compound 6a] | Y (Decrease >2-fold) | A (Increase <2-fold) | Y (Decrease >2-fold) | N | > 2 | N | N | N | > 2 | A (Increase <2-fold) | N | > 2 | > 2 | > 2 | – | – | – | –
6 | O=C(C[C@H]1CC[C@@H]2[C@H](COC[C@H](O)CN2Cc2ccc(Oc3ccccc3)cc2)O1)N1CCc2ccccc2C1 [Compound 9a] | Y (Decrease >2-fold) | B (Increase >2-fold) | Y (Decrease >2-fold) | X (Decrease <2-fold) | > 2 | N | N | B (Increase >2-fold) | > 2 | B (Increase >2-fold) | Y (Decrease >2-fold) | > 2 | > 2 | > 2 | – | – | – | –

Source: patent US9526720B2, “Modulators of hepatic lipoprotein metabolism” (The Broad Institute, Inc., priority 2012, dated 2016)
